# In patent US20240391923A1, “METHIONINE ADENOSYLTRANSFERASE 2A INHIBITOR FOR TREATING MTAP DELETION-TYPE CANCER” (SUZHOU GENHOUSE BIO CO., LTD., priority 2022, published 2024):
# Where two headings read alike, the source gives them in different places.
# Legend:
# [1] = target: MAT2A recombinant protein (Homo sapiens, UniProt P31153); assay: MAT2A inhibitory activity (malachite green colorimetric enzyme assay); type: biochemical
# Method in brief: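 Recombinant human MAT2A with L-methionine and ATP in 50 mM HEPES pH 7.5, 50 mM KCl, 10 mM MgCl2, 10 mM DTT, 60 min at room temperature. Phosphate released detected by malachite green reagent (15 min) at 630 nm. Ten-point 1:3 series from 1000 nM final; IC50 by variable-slope non-linear regression.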
# [2] = test system: SDMA in HCT116-MTAP-knockout cell line; assay: Cell symmetric dimethylarginine (SDMA) test, In-cell Western, HCT116-MTAP-knockout; type: cell-based; settings: Homo sapiens, 96 h
# [3] = test system: SDMA in human colon cancer cell line HCT116; assay: Cell symmetric dimethylarginine (SDMA) test, In-cell Western, HCT116 (MTAP wild-type); type: cell-based; settings: Homo sapiens, HCT-116, 96 h
# Method in brief: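 HCT116 cells treated 4 days at 37° C with compound, top concentration 6 μM, 1:4 dilutions, 6 points, versus DMSO. Fixed cells stained for SDMA with DRAQ5 normalisation; 800/700 nm ratio after background subtraction fitted by non-linear regression for IC50.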
# DOHH-2 cell strain = assay: Tumor cell proliferation inhibition assay (CellTiter-Glo), DOHH-2; type: cell-based; settings: Homo sapiens, 120 h, DOHH-2 cells, 5-day treatment
# Experimental: (§1) After the HCT116-MTAP-knockout (−/−) cell strain, the HCT116-MTAP wild-type(+/+)-cell strain, the DOHH-2 cell strain, or the Hut-78 cell strain was treated with the test compound for 5 days, the ATP level was measured using a CellTiter-Glo kit of Promega to evaluate the inhibition of the test compound against the growth of the tumor cell strain.
# (§2) In the present application, the HCT116-MTAP-knockout (−/−) cell strain, the HCT116-MTAP wild-type (+/+)-cell strain, the DOHH-2 cell strain, or the Hut-78 cell strain was seeded into a 96-well cell culture plate at an appropriate cell density. After 24 h, the cells were treated using the test compounds diluted 1:3 fold at the highest concentration of 10 μM for 10 gradients, and a DMSO treatment group was set up separately. The cells were cultured in a 37° C./5% CO2 incubator for 5 days.
# [4] = test system: HCT116-MTAP-knockout (−/−) cell strain; assay: Tumor cell proliferation inhibition assay (CellTiter-Glo), HCT116-MTAP-knockout (-/-); type: cell-based; settings: Homo sapiens, 120 h, HCT116-MTAP-knockout (−/−) cells, 5-day treatment
# Method in brief: (§3)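 Growth inhibition is evaluated from cellular ATP measured with CellTiter-Glo once cells have been treated for 5 days. Compounds are added 24 h after seeding as ten threefold dilutions starting at 10 μM, with a separate DMSO treatment group.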
# [5] = test system: HCT116-MTAP wild-type (+/+)-cell strain; assay: Tumor cell proliferation inhibition assay (CellTiter-Glo), HCT116-MTAP wild-type (+/+); type: cell-based; settings: Homo sapiens, 120 h, HCT116-MTAP wild-type (+/+) cells, 5-day treatment
# Method in brief: as §3
# [6] = Pharmacokinetic test in mice (IV and PO); type: in vivo; settings: mouse, plasma, BALB/c mice; for half-life: read-out: T½ (converted); for Vd: read-out: Vz
# Hut-78 cell strain = assay: Tumor cell proliferation inhibition assay (CellTiter-Glo), Hut-78; type: cell-based; settings: Homo sapiens, HuT78, 120 h, Hut-78 cells, 5-day treatment
# Experimental: as §1, §2
# [7] = IC50 score class, read-out: MAT2A Inhibition (score)
# [8] = IC50 score class, read-out: Cell 96 h SDMA Inhibition (HCT116-MTAP−/−) (score)
# [9] = read-out: Cell 96 h SDMA Inhibition (HCT116-MTAP−/−)
# [10] = IC50 score class, read-out: Cell 96 h SDMA Inhibition (HCT116-MTAP+/+) (score)
# [11] = read-out: Cell 96 h SDMA inhibition (HCT116-MTAP+/+)
# [12] = IC50 score, read-out: Tumor cell 5-day relative growth inhibition (DOHH-2) (nM), score
# [13] = IC50 value, read-out: Tumor cell 5-day relative growth inhibition (DOHH-2)
# [14] = IC50 score, read-out: Tumor cell 5-day relative growth inhibition (HCT116-MTAP−/−) (nM), score
# [15] = IC50 value, read-out: Tumor cell 5-day relative growth inhibition (HCT116-MTAP−/−)
# [16] = IC50 score, read-out: Tumor cell 5-day relative growth inhibition (HCT116-MTAP+/+) (nM), score
# [17] = IC50 value, read-out: Tumor cell 5-day relative growth inhibition (HCT116-MTAP+/+)
# Sequence of MAT2A recombinant protein (P31153 whole entry): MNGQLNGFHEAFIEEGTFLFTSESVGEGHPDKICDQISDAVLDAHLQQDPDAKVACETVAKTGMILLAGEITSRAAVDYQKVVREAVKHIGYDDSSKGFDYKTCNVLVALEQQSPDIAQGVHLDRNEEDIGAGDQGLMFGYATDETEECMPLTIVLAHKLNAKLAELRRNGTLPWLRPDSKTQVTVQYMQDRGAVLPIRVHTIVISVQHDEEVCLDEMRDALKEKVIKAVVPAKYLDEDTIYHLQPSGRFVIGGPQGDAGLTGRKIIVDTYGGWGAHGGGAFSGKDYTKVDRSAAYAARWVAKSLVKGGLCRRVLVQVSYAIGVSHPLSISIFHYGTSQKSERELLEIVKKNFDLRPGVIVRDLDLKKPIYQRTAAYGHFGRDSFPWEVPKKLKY
Compound,"IC50 [1, 7] [nM]",IC50 ([1]; read-out: MAT2A Inhibition) [nM],"IC50 [2, 8] [nM]","IC50 [2, 9] [nM]","IC50 [3, 10] [nM]","IC50 [3, 11] [nM]",IC50 (DOHH-2 cell strain; [12]) [nM],IC50 (DOHH-2 cell strain; [13]) [nM],other results
COCCn1cc2c(n1)c(=O)n(-c1cccnc1)c1cc(Cl)ccc21 [Compound B45],< 100,27.4,< 200,132,> 3000,3220,≥ 2000,2020,–
CCn1cc2c(n1)c(=O)n(-c1cccc(C#N)c1)c1cc(Cl)ccc21 [Compound B9],–,–,200 to 1000,328,1000 to 3000,2350,500 to 2000,1090,–
Cn1cc2c(n1)c(=O)n(-c1cccnc1)c1nc(C3CC3)ccc21 [Compound B71],–,–,200 to 1000,203,1000 to 3000,1270,500 to 2000,1290,–
CCn1cc2c(n1)c(=O)n(-c1cncc(F)c1)c1cc(Cl)ccc21 [Compound B14],< 100,66.9,1000 to 3000,–,1000 to 3000,–,≥ 2000,6680,–
CCn1cc2c(n1)c(=O)n(-c1cccnc1)c1nc(C(F)(F)F)ccc21 [Compound B29],< 100,18.5,< 200,90.4,200 to 1000,599,500 to 2000,719,"IC50 [4, 14]: < 500 nM; IC50 [4, 15]: 154 nM; IC50 [5, 16]: < 500 nM; IC50 [5, 17]: 437 nM; AUC ([6]; IV 2 mg/kg): 1.86 µM·h; clearance ([6]; IV 2 mg/kg): 46.7 mL/min/kg; bioavailability ([6]; IV 2 mg/kg, PO 10 mg/kg): 95%; half-life ([6]; IV 2 mg/kg): 18 min; Vd ([6]; IV 2 mg/kg): 1.3 L/kg; AUC ([6]; PO 10 mg/kg): 9.32 µM·h; half-life ([6]; PO 10 mg/kg): 25.8 min"
CCn1cc2c(n1)c(=O)n(-c1cccnc1C(F)(F)F)c1cc(Cl)ccc21 [Compound B32],< 100,43.5,< 200,53.9,1000 to 3000,2260,≥ 2000,2700,–
CCn1nc2c(=O)n(-c3cccnc3)c3cc(Cl)ccc3c2c1C [Compound B17],< 100,24,< 200,51.5,200 to 1000,635,< 500,396,"AUC ([6]; IV 2 mg/kg): 3.46 µM·h; clearance ([6]; IV 2 mg/kg): 27.7 mL/min/kg; bioavailability ([6]; IV 2 mg/kg, PO 10 mg/kg): 127%; half-life ([6]; IV 2 mg/kg): 14.4 min; Vd ([6]; IV 2 mg/kg): 0.6 L/kg; AUC ([6]; PO 10 mg/kg): 22.5 µM·h; half-life ([6]; PO 10 mg/kg): 28.2 min"
Cc1ncccc1-n1c(=O)c2nn(C)cc2c2ccc(C3CC3)cc21 [Compound B74],< 100,44.3,< 200,19.3,200 to 1000,261,< 500,340,–
Cn1cc2c(n1)c(=O)n(-c1cccnc1)c1cc(C(F)(F)F)ccc21 [Compound B69],< 100,28,< 200,109,1000 to 3000,1470,500 to 2000,1150,–
O=c1c2[nH]ncc2c2ccc(Cl)cc2n1-c1cccnc1 [Compound B13],< 100,17.2,< 200,188,1000 to 3000,2790,500 to 2000,979,"IC50 [4, 14]: < 500 nM; IC50 [4, 15]: 282 nM; IC50 [5, 16]: 500 to 2000 nM; IC50 [5, 17]: 928 nM"
Cc1ncccc1-n1c(=O)c2nn(C)c(C)c2c2ccc(C(F)(F)F)nc21 [Compound B189],< 100,39.7,< 200,12.3,200 to 1000,561,–,–,"IC50 [4, 14]: < 500 nM; IC50 [4, 15]: 13.6 nM; IC50 [5, 16]: < 500 nM; IC50 [5, 17]: 488 nM; IC50 (Hut-78 cell strain; IC50 score, read-out: Tumor cell 5-day relative growth inhibition (Hut-78) (nM), score): < 500 nM; IC50 (Hut-78 cell strain; IC50 value, read-out: Tumor cell 5-day relative growth inhibition (Hut-78)): 49.2 nM"
